Key:
Sclerotinia sclerotiorum [1] = assay: In vivo antifungal Sclerotinia sclerotiorum in Pepper (Capsicum annuum L. cv. Sera Demre) assessed as inhibition of mycelial growth in volatile phase at 168 umol/L measured after 10 to 14 weeks; format: functional
Sclerotinia sclerotiorum [2] = assay: Antifungal activity against Sclerotinia sclerotiorum assessed as inhibition of mycelial growth in contact phase at 2508 umol/l measured at 20 degC after 5 days; format: functional; details: 120 h, read-out: GI
Sclerotinia sclerotiorum [3] = assay: Antifungal activity against Sclerotinia sclerotiorum assessed as inhibition of germination in volatile phase at 251 umol/l measured at 20 degC after 5 days; format: functional; details: 120 h
Sclerotinia sclerotiorum [4] = assay: Fungistatic activity in Sclerotinia sclerotiorum assessed as inhibition of carpogenic germination in volatile phase at 42 umol/l measured at 20 degC after 5 days relative to control; format: functional; details: 120 h
Sclerotinia sclerotiorum [5] = assay: Antifungal activity against Sclerotinia sclerotiorum assessed as inhibition of germination in volatile phase at 84 umol/l measured at 20 degC after 5 days; format: functional; details: AT84, 120 h
Sclerotinia sclerotiorum [6] = assay: Antifungal activity against Sclerotinia sclerotiorum assessed as inhibition of germination in volatile phase at 836 umol/l measured at 20 degC after 5 days; format: functional; details: 120 h
Sclerotinia sclerotiorum [7] = assay: Fungistatic activity in Sclerotinia sclerotiorum assessed as inhibition of carpogenic germination in volatile phase at 84 umol/l measured at 20 degC after 5 days relative to control; format: functional; details: AT84, 120 h
Sclerotinia sclerotiorum [8] = assay: Fungistatic activity in Sclerotinia sclerotiorum assessed as inhibition of mycelial growth in volatile phase measured at 20 degC after 5 days; format: functional, organism-based; details: 120 h
Sclerotinia sclerotiorum [9] = assay: Fungistatic activity in Sclerotinia sclerotiorum assessed as sclerotial viability measured at 20 degC after 5 days; format: functional, organism-based; details: 120 h
Sclerotinia sclerotiorum [10] = assay: Antifungal activity against Sclerotinia sclerotiorum assessed as inhibition of mycelial growth in volatile phase at 836 umol/l measured at 20 degC after 5 days; format: functional; details: 120 h, read-out: GI
Sclerotinia sclerotiorum [11] = assay: Antifungal activity against Sclerotinia sclerotiorum assessed as inhibition of mycelial growth in volatile phase at 418 umol/l measured at 20 degC after 5 days; format: functional; details: 120 h, read-out: GI
Sclerotinia sclerotiorum [12] = assay: Antifungal activity against Sclerotinia sclerotiorum assessed as inhibition of mycelial growth in contact phase at 585 umol/l measured at 20 degC after 5 days; format: functional; details: 120 h, read-out: GI
Sclerotinia sclerotiorum [13] = assay: Fungistatic activity in Sclerotinia sclerotiorum assessed as viability in volatile phase at 418 umol/l measured at 20 degC after 5 days relative to control; format: functional; details: 120 h, read-out: GI
Sclerotinia sclerotiorum [14] = assay: Antifungal activity against Sclerotinia sclerotiorum assessed as inhibition of germination in volatile phase at 42 umol/l measured at 20 degC after 5 days; format: functional; details: 120 h
Sclerotinia sclerotiorum [15] = assay: Antifungal activity against Sclerotinia sclerotiorum assessed as inhibition of mycelial growth in volatile phase at 585 umol/l measured at 20 degC after 5 days; format: functional; details: 120 h, read-out: GI
Sclerotinia sclerotiorum [16] = assay: Antifungal activity against Sclerotinia sclerotiorum assessed as inhibition of mycelial growth in volatile phase at 84 umol/l measured at 20 degC after 5 days; format: functional; details: 120 h, read-out: GI
Sclerotinia sclerotiorum [17] = assay: Antifungal activity against Sclerotinia sclerotiorum assessed as inhibition of mycelial growth in volatile phase at 42 umol/l measured at 20 degC after 5 days; format: functional; details: 120 h, read-out: GI
Sclerotinia sclerotiorum [18] = assay: Antifungal activity against Sclerotinia sclerotiorum assessed as inhibition of mycelial growth in contact phase at 1672 umol/l measured at 20 degC after 5 days; format: functional; details: 120 h, read-out: GI
Sclerotinia sclerotiorum [19] = assay: Fungistatic activity in Sclerotinia sclerotiorum assessed as inhibition of mycelial growth in contact phase at 1672 umol/l measured at 20 degC after 5 days relative to control; format: functional; details: 120 h, read-out: GI
Sclerotinia sclerotiorum [20] = assay: Fungistatic activity in Sclerotinia sclerotiorum assessed as inhibition of mycelial growth in volatile phase at 836 umol/l measured at 20 degC after 5 days relative to control; format: functional; details: 120 h, read-out: GI
Sclerotinia sclerotiorum [21] = assay: Fungitoxic activity in Sclerotinia sclerotiorum assessed as inhibition of mycelial growth in contact phase at 2508 umol/l measured at 20 degC after 5 days relative to control; format: functional; details: 120 h
Sclerotinia sclerotiorum [22] = assay: Fungistatic activity in Sclerotinia sclerotiorum assessed as inhibition of carpogenic germination in volatile phase at 836 umol/l measured at 20 degC after 5 days relative to control; format: functional; details: 120 h
Sclerotinia sclerotiorum [23] = assay: Antifungal activity against Sclerotinia sclerotiorum assessed as inhibition of mycelial growth in contact phase at 752 umol/l measured at 20 degC after 5 days; format: functional; details: 120 h, read-out: GI
Sclerotinia sclerotiorum [24] = assay: Fungistatic activity in Sclerotinia sclerotiorum assessed as inhibition of mycelial growth in contact phase measured at 20 degC after 5 days; format: functional, organism-based; details: 120 h
Sclerotinia sclerotiorum [25] = assay: Fungistatic activity in Sclerotinia sclerotiorum assessed as inhibition of carpogenic germination in volatile phase at 418 umol/l measured at 20 degC after 5 days relative to control; format: functional; details: 120 h
Sclerotinia sclerotiorum [26] = assay: In vivo antifungal Sclerotinia sclerotiorum in Pepper (Capsicum annuum L. cv. Sera Demre) assessed as inhibition of mycelial growth in volatile phase at 84 umol/L measured after 10 to 14 weeks; format: functional
Sclerotinia sclerotiorum [27] = assay: Antifungal activity against Sclerotinia sclerotiorum assessed as inhibition of germination in volatile phase at 418 umol/l measured at 20 degC after 5 days; format: functional; details: 120 h
Sclerotinia sclerotiorum [28] = assay: Antifungal activity against Sclerotinia sclerotiorum assessed as inhibition of mycelial growth in contact phase at 836 umol/l measured at 20 degC after 5 days; format: functional; details: 120 h, read-out: GI

S=C=Nc1ccccc1 [PHENYLISOTHIOCYANATE]
inhibition in vivo at 168 µM (Sclerotinia sclerotiorum [1]): 68.3%
inhibition of growth at 2508 µM (Sclerotinia sclerotiorum [2]): 100%
inhibition at 251 µM (Sclerotinia sclerotiorum [3]): 46.7%
inhibition at 42 µM (Sclerotinia sclerotiorum [4]): 12.5%
inhibition at 84 µM (Sclerotinia sclerotiorum [5]): 13.3%
inhibition at 836 µM (Sclerotinia sclerotiorum [6]): 100%
inhibition at 84 µM (Sclerotinia sclerotiorum [7]): 52.5%
EC50 (Sclerotinia sclerotiorum [8]): 134 µM
EC50 (Sclerotinia sclerotiorum [9]): 192 µM
inhibition of growth at 836 µM (Sclerotinia sclerotiorum [10]): 100%
inhibition of growth at 418 µM (Sclerotinia sclerotiorum [11]): 70%
inhibition of growth at 585 µM (Sclerotinia sclerotiorum [12]): 5%
inhibition of growth at 418 µM (Sclerotinia sclerotiorum [13]): 100%
inhibition at 42 µM (Sclerotinia sclerotiorum [14]): 6.7%
inhibition of growth at 585 µM (Sclerotinia sclerotiorum [15]): 74.2%
inhibition of growth at 84 µM (Sclerotinia sclerotiorum [16]): 42.8%
inhibition of growth at 42 µM (Sclerotinia sclerotiorum [17]): 20.8%
inhibition of growth at 1672 µM (Sclerotinia sclerotiorum [18]): 100%
inhibition of growth at 1672 µM (Sclerotinia sclerotiorum [19]): 100%
inhibition of growth at 836 µM (Sclerotinia sclerotiorum [20]): 100%
inhibition at 2508 µM (Sclerotinia sclerotiorum [21]): 100%
inhibition at 836 µM (Sclerotinia sclerotiorum [22]): 85%
inhibition of growth at 752 µM (Sclerotinia sclerotiorum [23]): 23.7%
EC50 (Sclerotinia sclerotiorum [24]): 802 µM
inhibition at 418 µM (Sclerotinia sclerotiorum [25]): 52.5%
inhibition in vivo at 84 µM (Sclerotinia sclerotiorum [26]): 61.7%
inhibition at 418 µM (Sclerotinia sclerotiorum [27]): 100%
inhibition of growth at 836 µM (Sclerotinia sclerotiorum [28]): 65.5%
